Assay [1] has as its system P388. In words: In vivo cytotoxicity against mouse P388 cells at 0.63 mg/kg relative to control. It is filed as functional.
Assay [2] has as its system P388. In words: In vivo cytotoxicity against mouse P388 cells at 1.25 mg/kg relative to control. The class given is functional.

Turning to `COC(=O)[C@]12OC[C@]34[C@H]([C@@H](O)[C@@H]1O)[C@@]1(C)C=C5OC(=O)C=C5[C@@H](C)[C@@H]1C[C@H]3OC(=O)[C@H](O)[C@@H]24` [DEACETYLSERGEOLIDE], the T/C (in general, the ratio of treated to control) with P388 [1] is 150%. As for `COC(=O)[C@]12OC[C@]34[C@H]([C@@H](O)[C@@H]1O)[C@@]1(C)C=C5OC(=O)C=C5[C@@H](C)[C@@H]1C[C@H]3OC(=O)[C@H](OC(C)=O)[C@@H]24` [SERGEOLIDE], the T/C with P388 [2] is reported as 169%.
